pIC50: −log10 of the molar value.
Tests used:
[1] = molecular target: Human recombinant Acetyl-CoA Carboxylase 1 (ACC1) (Homo sapiens, UniProt Q13085); assay: Assay Y: ACC1 inhibition, inorganic phosphate (Malachite Green); assay type: biochemical; conditions: Assay Y: room temperature, 3 hr, 15 min preincubation
Description: (§1) Preincubation of 6 μL enzyme together with 0.3 μL compound for 15 min was done before the reaction was initiated by the addition of 4 μL substrate. […] After 3 hr the reaction was stopped by addition of 60 μL of water followed by 30 μL Malachite Green solution. The Malachite Green solution was prepared by mixing 16.4 mL ammonium molybdate solution (7.5%), 1.64 mL Tween (11%) with 82 mL Malachite Green/H2SO4-solution (0.7 g Malachite Green to 1000 mL of 10% (v/v) H2SO4). Plates were left for 10 min at room temperature before reading the absorbance at 670 nm. All compounds were tested in triplicate at 10 different concentrations. Control compound (0, 50 and 100% effect) was included on each plate. […] An IC50 value was derived by non-linear regression curve fitting using the following equation: […]))) where A is the non-specific binding, B is the total binding, C is the IC50 and D is the slope. Saturation binding Kd and Bmax were derived using the equation y=((B1 max*x)/(Kd+x)).

[2] = molecular target: Human recombinant Acetyl-CoA Carboxylase 2 (ACC2) (Homo sapiens, UniProt O00763); assay: Assay Y: ACC2 inhibition, inorganic phosphate (Malachite Green); assay type: biochemical; conditions: Assay Y: room temperature, 3 hr, 15 min preincubation
Chain of Human recombinant Acetyl-CoA Carboxylase 2 (ACC2) (O00763 whole entry): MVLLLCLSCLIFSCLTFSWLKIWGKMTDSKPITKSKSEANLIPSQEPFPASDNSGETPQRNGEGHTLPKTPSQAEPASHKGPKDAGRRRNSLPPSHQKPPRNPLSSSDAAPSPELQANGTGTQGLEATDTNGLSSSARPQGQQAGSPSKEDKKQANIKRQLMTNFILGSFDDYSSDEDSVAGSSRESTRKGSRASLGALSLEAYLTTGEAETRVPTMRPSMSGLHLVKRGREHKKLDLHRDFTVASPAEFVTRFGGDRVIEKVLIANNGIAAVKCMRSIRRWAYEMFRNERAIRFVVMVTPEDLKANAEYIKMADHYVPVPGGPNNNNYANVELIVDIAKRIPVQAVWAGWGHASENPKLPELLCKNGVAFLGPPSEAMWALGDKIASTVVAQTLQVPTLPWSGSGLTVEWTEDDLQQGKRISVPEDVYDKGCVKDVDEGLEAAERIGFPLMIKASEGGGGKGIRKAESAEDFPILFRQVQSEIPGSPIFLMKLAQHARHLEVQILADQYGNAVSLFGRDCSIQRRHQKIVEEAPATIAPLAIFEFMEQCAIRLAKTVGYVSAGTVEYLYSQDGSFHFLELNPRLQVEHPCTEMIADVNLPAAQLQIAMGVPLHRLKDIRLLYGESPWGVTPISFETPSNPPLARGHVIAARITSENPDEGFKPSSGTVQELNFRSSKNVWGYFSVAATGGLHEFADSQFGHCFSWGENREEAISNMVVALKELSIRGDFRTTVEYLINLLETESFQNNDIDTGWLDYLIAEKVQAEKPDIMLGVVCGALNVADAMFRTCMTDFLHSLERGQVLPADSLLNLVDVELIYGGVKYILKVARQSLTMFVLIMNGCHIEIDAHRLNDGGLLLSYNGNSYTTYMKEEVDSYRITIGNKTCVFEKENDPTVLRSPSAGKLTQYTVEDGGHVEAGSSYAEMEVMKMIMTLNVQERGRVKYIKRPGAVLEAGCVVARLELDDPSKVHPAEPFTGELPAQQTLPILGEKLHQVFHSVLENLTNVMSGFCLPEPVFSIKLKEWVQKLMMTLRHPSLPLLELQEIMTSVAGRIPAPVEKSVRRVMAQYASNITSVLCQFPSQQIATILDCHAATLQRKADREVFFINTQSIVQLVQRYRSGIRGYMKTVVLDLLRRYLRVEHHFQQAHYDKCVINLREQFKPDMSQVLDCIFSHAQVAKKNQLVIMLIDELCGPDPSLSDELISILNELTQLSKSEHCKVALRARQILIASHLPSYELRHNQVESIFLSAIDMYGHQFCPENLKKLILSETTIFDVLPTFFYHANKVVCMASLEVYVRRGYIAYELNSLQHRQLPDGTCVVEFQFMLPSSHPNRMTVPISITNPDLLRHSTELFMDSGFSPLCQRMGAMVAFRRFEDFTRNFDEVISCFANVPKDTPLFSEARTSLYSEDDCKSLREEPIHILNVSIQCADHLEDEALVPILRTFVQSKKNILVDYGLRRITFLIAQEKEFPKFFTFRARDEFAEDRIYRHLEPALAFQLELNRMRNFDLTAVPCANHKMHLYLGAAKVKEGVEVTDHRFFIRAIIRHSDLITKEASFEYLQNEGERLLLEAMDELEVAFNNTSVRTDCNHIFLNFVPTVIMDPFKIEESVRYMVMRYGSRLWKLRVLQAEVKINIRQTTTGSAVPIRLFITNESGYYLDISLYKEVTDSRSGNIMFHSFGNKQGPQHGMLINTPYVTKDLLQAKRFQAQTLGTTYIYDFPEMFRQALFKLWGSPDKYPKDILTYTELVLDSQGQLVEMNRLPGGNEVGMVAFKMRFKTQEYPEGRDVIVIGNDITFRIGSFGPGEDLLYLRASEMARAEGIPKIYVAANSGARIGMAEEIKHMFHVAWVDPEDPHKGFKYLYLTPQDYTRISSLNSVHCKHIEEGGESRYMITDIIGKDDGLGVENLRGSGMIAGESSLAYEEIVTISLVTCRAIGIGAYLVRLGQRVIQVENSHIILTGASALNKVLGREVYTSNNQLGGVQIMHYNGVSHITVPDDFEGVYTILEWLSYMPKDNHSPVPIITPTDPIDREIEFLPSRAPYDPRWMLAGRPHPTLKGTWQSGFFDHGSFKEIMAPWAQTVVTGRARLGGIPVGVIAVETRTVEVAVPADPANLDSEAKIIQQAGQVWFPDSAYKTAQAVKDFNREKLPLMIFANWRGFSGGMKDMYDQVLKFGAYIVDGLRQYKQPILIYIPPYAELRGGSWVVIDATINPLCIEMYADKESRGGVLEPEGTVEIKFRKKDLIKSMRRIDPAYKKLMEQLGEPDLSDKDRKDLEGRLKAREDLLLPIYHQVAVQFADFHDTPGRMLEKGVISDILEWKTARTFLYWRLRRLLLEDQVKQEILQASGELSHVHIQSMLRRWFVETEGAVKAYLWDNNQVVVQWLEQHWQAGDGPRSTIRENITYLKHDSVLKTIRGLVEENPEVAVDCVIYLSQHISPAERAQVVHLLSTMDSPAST
Description: as §1

| Structure (SMILES) | pIC50 [1] | pIC50 [2] |
| --- | --- | --- |
| COc1cccc(-c2cc(C(=O)NC[C@H]3CC[C@H](CNC(=O)OC(C)(C)C)CC3)c3ccccc3n2)c1 [Example 22, tert-Butyl ({trans-4-[({[2-(3-methoxyphenyl)quinolin-4-yl]carbonyl}amino)-methyl]cyclohexyl}methyl)carbamate] | 6.00 | 6.51 |
| COc1ccccc1-c1cc(C(=O)NC[C@H]2CC[C@H](CNC(=O)OC(C)(C)C)CC2)c2ccccc2n1 [Example 23, tert-Butyl ({trans-4-[({[2-(2-methoxyphenyl)quinolin-4-yl]carbonyl}amino)methyl]-cyclohexyl}methyl)carbamate] | 5.49 | 6.34 |
| CSc1ccc(-c2cc(C(=O)NC[C@H]3CC[C@H](CNC(=O)OC(C)(C)C)CC3)c3ccccc3n2)cc1 [Example 24, tert-Butyl [(trans-4-{[({2-[4-(methylthio)phenyl]quinolin-4-yl}carbonyl)amino]-methyl}cyclohexyl)methyl]carbamate] | 5.87 | 6.31 |
| Cc1nc(C)c(-c2cc(C(=O)NC[C@H]3CC[C@H](CNC(=O)OC(C)(C)C)CC3)c3ccccc3n2)s1 [Example 25, tert-Butyl ({trans-4-[({[2-(2,4-dimethyl-1,3-thiazol-5-yl)quinolin-4-yl]carbonyl}amino)-methyl]cyclohexyl}methyl)carbamate] | 5.77 | 6.85 |
| CCOC(=O)NC[C@H]1CC[C@H](CNC(=O)c2cc(-c3cnccn3)nc3ccccc23)CC1 [Example 26, Ethyl {[trans-4-({[(2-pyrazin-2-ylquinolin-4-yl)carbonyl]amino}methyl)cyclohexyl]-methyl}carbamate] | < 4.70 | 5.39 |
| CCOC(=O)NC[C@H]1CC[C@H](CNC(=O)c2cc(-c3cccc(OC)c3)nc3ccccc23)CC1 [Example 27, Ethyl ({trans-4-[({[2-(3-methoxyphenyl)quinolin-4-yl]carbonyl}amino)methyl]cyclo-hexyl}methyl)carbamate] | 5.44 | 5.93 |
| CCOC(=O)NC[C@H]1CC[C@H](CNC(=O)c2cc(-c3ccc(C)cc3)nc3ccccc23)CC1 [Example 28, Ethyl ({trans-4-[({[2-(4-methylphenyl)quinolin-4-yl]carbonyl}amino)methyl]cyclo-hexyl}methyl)carbamate] | 5.22 | 5.93 |
| CCOC(=O)NC[C@H]1CC[C@H](CNC(=O)c2cc(-c3ccc(SC)cc3)nc3ccccc23)CC1 [Example 29, Ethyl [(trans-4-{[({2-[4-(methylthio)phenyl]quinolin-4-yl}carbonyl)amino]methyl}-cyclohexyl)methyl]carbamate] | 5.39 | 5.90 |
| CCOC(=O)NC[C@H]1CC[C@H](CNC(=O)c2cc(-c3ccc(OCC)cc3)nc3ccccc23)CC1 [Example 30, Ethyl ({trans-4-[({[2-(4-ethoxyphenyl)quinolin-4-yl]carbonyl}amino)methyl]-cyclohexyl}methyl)carbamate] | < 4.70 | 5.89 |
| CCOC(=O)NC[C@H]1CC[C@H](CNC(=O)c2cc(-c3ccccc3OC)nc3ccccc23)CC1 [Example 31, Ethyl ({trans-4-[({[2-(2-methoxyphenyl)quinolin-4-yl]carbonyl}amino)methyl]-cyclohexyl}methyl)carbamate] | < 4.70 | 5.45 |
| CCOC(=O)NC[C@H]1CC[C@H](CNC(=O)c2cc(-c3ccc(Cl)cc3)nc3ccccc23)CC1 [Example 32, Ethyl ({trans-4-[({[2-(4-chlorophenyl)quinolin-4-yl]carbonyl}amino)methyl]cyclo-hexyl}methyl)carbamate] | < 4.70 | 5.76 |
| CC(C)(C)OC(=O)NC[C@H]1CC[C@H](CNC(=O)c2cc(-c3cncnc3)nc3ccccc23)CC1 [Example 33, tert-Butyl {[trans-4-({[(2-pyrimidin-5-ylquinolin-4-yl)carbonyl]amino}methyl)cyclo-hexyl]methyl}carbamate] | 5.45 | 5.94 |
| CC(C)(C)OC(=O)NC[C@H]1CC[C@H](CNC(=O)c2cc(-c3ccc(C#N)cc3)nc3ccccc23)CC1 [Example 34, tert-Butyl ({trans-4-[({[2-(4-cyanophenyl)quinolin-4-yl]carbonyl}amino)methyl]cyclo-hexyl}methyl)carbamate] | 5.93 | 6.66 |
| CC(C)(C)OC(=O)NC[C@H]1CC[C@H](CNC(=O)c2cc(Cl)nc3ccccc23)CC1 [Example 35, tert-butyl {[trans-4-({[(2-chloroquinolin-4-yl)carbonyl]amino}methyl)cyclohexyl]-methyl}carbamate] | 5.00 | 5.42 |
| COc1cc(C(=O)NC[C@H]2CC[C@H](CNC(=O)OC(C)(C)C)CC2)cc(-c2ccc(CN)cc2)n1 [Example 36, tert-Butyl ({trans-4-[({2-[4-(aminomethyl)phenyl]-6-methoxyisonicotinoyl}-amino)methyl]cyclohexyl}methyl)carbamate] | 5.40 | 5.80 |
| CC(C)(C)OC(=O)NC[C@H]1CC[C@H](CNC(=O)c2cc(-c3ccc(CN)cc3)ncc2Cl)CC1 [Example 37, tert-Butyl ({trans-4-[({2-[4-(aminomethyl)phenyl]-5-chloroisonicotinoyl}amino)-methyl]cyclohexyl}methyl)carbamate] | 5.43 | 6.33 |
| Cc1cc(C(=O)NC[C@H]2CC[C@H](CNC(=O)OC(C)(C)C)CC2)cc(-c2ccc(CN)cc2)n1 [Example 38, tert-Butyl ({trans-4-[({2-[4-(aminomethyl)phenyl]-6-methylisonicotinoyl}amino)-methyl]cyclohexyl}methyl)carbamate] | 5.26 | 5.39 |
| CC(C)(C)OC(=O)NC[C@H]1CC[C@H](CNC(=O)c2cc(-c3cccc(CN)c3)nc3ccccc23)CC1 [Example 39, tert-Butyl [(trans-4-{[({2-[3-(aminomethyl)phenyl]quinolin-4-yl}carbonyl)amino]-methyl}cyclohexyl)methyl]carbamate] | 6.66 | 7.70 |
| CC(C)(C)OC(=O)NC[C@H]1CC[C@H](CNC(=O)c2cc(-c3cccc(CC(=O)O)c3)nc3ccccc23)CC1 [Example 40, [3-(4-{[(trans-4-{[(tert-Butoxycarbonyl)amino]methyl}cyclohexyl)methyl]-carbamoyl}quinolin-2-yl)phenyl]acetic Acid] | 5.06 | 6.00 |
| CC(C)(C)OC(=O)NC[C@H]1CC[C@H](CNC(=O)c2ccnc(-c3ccccc3)c2)CC1 [Example 41, tert-Butyl [(trans-4-{[(2-phenylisonicotinoyl)amino]methyl}cyclohexyl)methyl]-carbamate] | 5.18 | 5.34 |
| COc1ccc(-c2cc(C(=O)NC[C@H]3CC[C@H](CNC(=O)OC(C)(C)C)CC3)ccn2)cc1 [Example 42, tert-Butyl {[trans-4-({[2-(4-methoxyphenyl)isonicotinoyl]amino}methyl)cyclo-hexyl]methyl}carbamate] | 4.89 | 5.21 |
| Cc1cc(C(=O)NC[C@H]2CC[C@H](CNC(=O)OC(C)(C)C)CC2)cc(-c2ccccc2)n1 [Example 43, tert-Butyl [(trans-4-{[(2-methyl-6-phenylisonicotinoyl)amino]methyl}cyclohexyl)-methyl]carbamate] | 5.08 | 5.24 |
